Assay results as given in patent US20240116948A1, “PYRIDO OXAZINE DERIVATIVES AS ALK5 INHIBITORS” (CHIESI FARMACEUTICI S.P.A., priority 2020, published 2024).

Target: human ALK5 (Homo sapiens (Human), UniProt P36897)
Experiment: ADP-GLO Kinases assay, inhibition of ALK5 kinase activity
Assay type: biochemical
Conditions: Table 12; compounds classified in term of potency; ATP at Km, 25° C.; read-out: ALK5 IC50
Procedure: The enzymatic activity of compounds of the present invention was monitored measuring the formation of ADP using the ADP-GLO Kinases assay. Following the incubation of the purified enzyme, a substrate and ATP, the produced ADP was converted into ATP, which in turn was converted into light by Ultra-Glo Luciferase. The luminescent signal positively correlated with ADP amount and kinase activity. Briefly, the kinase reaction was performed by incubating 2.6 nM of the purified, commercially available human ALK5 (recombinant TGF 31 N-term GST-tagged, 80-end), a final concentration of TGFβ1 peptide 94.5 μM (Promega, T36-58) and ultra-pure ATP (Promega V915B). The ATP concentration was set at the Km value (concentration of substrate which permits the enzyme to achieve half maximal velocity (Vmax)) of ALK5 (5 μM). All reactions/incubations were performed at 25° C. Compound and ALK5 kinase were mixed and incubated for 15 mins. Reactions were initiated by addition of ATP at a final concentration in the assay of […]. After an incubation of 150 min, the reaction was stopped, and ADP production detected with ADP-Glo kit according to manufacturer's indications. The assay was performed in 384-well format and was validated using a selection of reference compounds that was tested in 11 point concentration-response curve.
Compounds of the examples C1 and C2 were tested in the same in vitro assay described above.

human ALK5, sequence (P36897 80-503 limits assumed): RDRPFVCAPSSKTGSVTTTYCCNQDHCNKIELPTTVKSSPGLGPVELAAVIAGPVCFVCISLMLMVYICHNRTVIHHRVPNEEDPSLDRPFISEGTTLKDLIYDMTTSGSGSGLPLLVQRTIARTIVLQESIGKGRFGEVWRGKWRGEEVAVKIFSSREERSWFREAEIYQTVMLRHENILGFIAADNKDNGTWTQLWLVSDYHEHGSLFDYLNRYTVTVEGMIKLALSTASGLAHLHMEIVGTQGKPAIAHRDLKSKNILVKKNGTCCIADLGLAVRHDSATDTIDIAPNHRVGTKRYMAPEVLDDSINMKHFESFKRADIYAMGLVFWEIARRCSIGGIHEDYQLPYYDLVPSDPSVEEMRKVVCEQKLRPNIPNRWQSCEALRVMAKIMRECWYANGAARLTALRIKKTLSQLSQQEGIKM

Row | Compound | IC50 [nM]
1 | O=C(OC1CC1)c1cncc(-c2cc(-c3cc(Cl)ccc3F)nc3c2OCCN3)c1 [Example 40, Cyclopropyl 5-[6-(5-chloro-2-fluorophenyl)-2H,3H,4H-pyrido[3,2-b][1,4]oxazin-8-yl]pyridine-3-carboxylate] | 1 to 5
2 | O=C(CCN1CCOCC1)Nc1cncc(-c2cc(-c3cc(Cl)ccc3F)nc3c2OCCN3)c1 [Example 9, N-{5-[6-(5-chloro-2-fluorophenyl)-2H,3H,4H-pyrido[3,2-b][1,4]oxazin-8-yl]pyridin-3-yl}-3-(morpholin-4-yl)propanamide] | 1 to 5
3 | Fc1ccc(Cl)cc1-c1cc(-c2cncc(OC3CCOC3)c2)c2c(n1)NCCO2 (stereo not shown) [Example 36, 3-[6-(5-chloro-2-fluorophenyl)-2H,3H,4H-pyrido[3,2-b][1,4]oxazin-8-yl]-5-(oxolan-3-yloxy)pyridine] | 1 to 5
4 | CNCCCNC(=O)c1cncc(-c2cc(-c3cc(Cl)ccc3F)nc3c2OCCN3)c1 [Example 32, 5-[6-(5-chloro-2-fluorophenyl)-2H,3H,4H-pyrido[3,2-b][1,4]oxazin-8-yl]-N-[3-(methylamino)propyl]pyridine-3-carboxamide] | 1 to 5
5 | O=C(NCCN1CCNCC1)c1cncc(-c2cc(-c3cc(Cl)ccc3F)nc3c2OCCN3)c1 [Example 20, 5-[6-(5-chloro-2-fluorophenyl)-2H,3H,4H-pyrido[3,2-b][1,4]oxazin-8-yl]-N-[2-(piperazin-1-yl)ethyl]pyridine-3-carboxamide] | 1 to 5
6 | Cc1cccc(-c2cc(-c3cncc4ccccc34)c3c(n2)NCCO3)n1 [Example 3, 4-[6-(6-methylpyridin-2-yl)-2H,3H,4H-pyrido[3,2-b][1,4]oxazin-8-yl]isoquinoline] | 1 to 5
7 | CN1CCN(CCNC(=O)c2cncc(-c3cc(-c4cc(Cl)ccc4F)nc4c3OCCN4)c2)CC1 [Example 37, 5-[6-(5-chloro-2-fluorophenyl)-2H,3H,4H-pyrido[3,2-b][1,4]oxazin-8-yl]-N-[2-(4-methylpiperazin-1-yl)ethyl]pyridine-3-carboxamide] | 1 to 5
8 | CN1CCN(CCC(=O)Nc2cncc(-c3cc(-c4cc(Cl)ccc4F)nc4c3OCCN4)c2)CC1=O [Example 46, N-{5-[6-(5-chloro-2-fluorophenyl)-2H,3H,4H-pyrido[3,2-b][1,4]oxazin-8-yl]pyridin-3-yl}-3-(4-methyl-3-oxopiperazin-1-yl)propanamide] | 5 to 10
9 | O=C(NCCN1CCCC1)c1cncc(-c2cc(-c3cc(Cl)ccc3F)nc3c2OCCN3)c1 [Example 26, 5-[6-(5-chloro-2-fluorophenyl)-2H,3H,4H-pyrido[3,2-b][1,4]oxazin-8-yl]-N-[2-(pyrrolidin-1-yl)ethyl]pyridine-3-carboxamide] | 5 to 10
10 | COC(=O)c1cncc(-c2cc(-c3cccc(C)n3)nc3c2OCCN3)c1 [Example 39, Methyl 5-[6-(6-methylpyridin-2-yl)-2H,3H,4H-pyrido[3,2-b][1,4]oxazin-8-yl]pyridine-3-carboxylate] | 5 to 10
11 | Fc1ccc(Cl)cc1-c1cc(-c2cnc3[nH]ncc3c2)c2c(n1)NCCO2 [Example 10, 6-(5-chloro-2-fluorophenyl)-8-{1H-pyrazolo[3,4-b]pyridin-5-yl}-2H,3H,4H-pyrido[3,2-b][1,4]oxazine] | ≤ 1
12 | Cc1csc(-c2cc(-c3cncc4ccccc34)c3c(n2)NCCO3)n1 [Example 4, 4-[6-(4-methyl-1,3-thiazol-2-yl)-2H,3H,4H-pyrido[3,2-b][1,4]oxazin-8-yl]isoquinoline] | 1 to 5
13 | CN1CCC(COc2cncc(-c3cc(-c4cc(Cl)ccc4F)nc4c3OCCN4)c2)CC1 [Example 42, 3-[6-(5-chloro-2-fluorophenyl)-2H,3H,4H-pyrido[3,2-b][1,4]oxazin-8-yl]-5-[(1-methylpiperidin-4-yl)methoxy]pyridine] | 1 to 5

Continued, values first:

Row | IC50 [nM] | Compound
14 | 1 to 5 | CN1CCN(CCC(=O)Nc2cncc(-c3cc(-c4cc(Cl)ccc4F)nc4c3OCCN4)c2)CC1 [Example 38, N-{5-[6-(5-chloro-2-fluorophenyl)-2H,3H,4H-pyrido[3,2-b][1,4]oxazin-8-yl]pyridin-3-yl}-3-(4-methylpiperazin-1-yl)propanamide]
15 | 5 to 10 | CN(C)CC(=O)Nc1cncc(-c2cc(-c3cc(Cl)ccc3F)nc3c2OCCN3)c1 [Example 15, N-{5-[6-(5-chloro-2-fluorophenyl)-2H,3H,4H-pyrido[3,2-b][1,4]oxazin-8-yl]pyridin-3-yl}-2-(dimethylamino)acetamide]
16 | 5 to 10 | COC(=O)CN(C)CCC(=O)Nc1cncc(-c2cc(-c3cc(Cl)ccc3F)nc3c2OCCN3)c1 [Example 48, Methyl 2-{[2-({5-[6-(5-chloro-2-fluorophenyl)-2H,3H,4H-pyrido[3,2-b][1,4]oxazin-8-yl]pyridin-3-yl}carbamoyl)ethyl](methyl)amino}acetate]
17 | 1 to 5 | COC(=O)c1cncc(-c2cc(-c3cc(Cl)ccc3F)nc3c2OCCN3)c1 [Example 19, Methyl 5-[6-(5-chloro-2-fluorophenyl)-2H,3H,4H-pyrido[3,2-b][1,4]oxazin-8-yl]pyridine-3-carboxylate]
18 | 5 to 10 | CNC(=O)c1cncc(-c2cc(-c3cc(Cl)ccc3F)nc3c2OCCN3)c1 [Example 7, 5-[6-(5-chloro-2-fluorophenyl)-2H,3H,4H-pyrido[3,2-b][1,4]oxazin-8-yl]-N-methylpyridine-3-carboxamide]
19 | 1 to 5 | CN(C)CCCNc1cncc(-c2cc(-c3cc(Cl)ccc3F)nc3c2OCCN3)c1 [Example 30, 5-[6-(5-chloro-2-fluorophenyl)-2H,3H,4H-pyrido[3,2-b][1,4]oxazin-8-yl]-N-[3-(dimethylamino)propyl]pyridin-3-amine]
20 | ≤ 1 | COc1cncc(-c2cc(-c3cc(Cl)ccc3F)nc3c2OCCN3)c1 [Example 25, 3-[6-(5-chloro-2-fluorophenyl)-2H,3H,4H-pyrido[3,2-b][1,4]oxazin-8-yl]-5-methoxypyridine]
21 | ≤ 1 | CN(C)CCCC(=O)Nc1cncc(-c2cc(-c3cc(Cl)ccc3F)nc3c2OCCN3)c1 [Example 17, N-{5-[6-(5-chloro-2-fluorophenyl)-2H,3H,4H-pyrido[3,2-b][1,4]oxazin-8-yl]pyridin-3-yl}-4-(dimethylamino)butanamide]
22 | 1 to 5 | CN(C)CCOC(=O)c1cncc(-c2cc(-c3cc(Cl)ccc3F)nc3c2OCCN3)c1 [Example 24, 2-(dimethylamino)ethyl 5-[6-(5-chloro-2-fluorophenyl)-2H,3H,4H-pyrido[3,2-b][1,4]oxazin-8-yl]pyridine-3-carboxylate]
23 | 1 to 5 | Oc1cncc(-c2cc(-c3cc(Cl)ccc3F)nc3c2OCCN3)c1 [Example 29, 5-[6-(5-chloro-2-fluorophenyl)-2H,3H,4H-pyrido[3,2-b][1,4]oxazin-8-yl]pyridin-3-ol]
24 | 1 to 5 | Nc1cncc(-c2cc(-c3cc(Cl)ccc3F)nc3c2OCCN3)c1 [Example 5, 5-[6-(5-chloro-2-fluorophenyl)-2H,3H,4H-pyrido[3,2-b][1,4]oxazin-8-yl]pyridin-3-amine]
25 | 1 to 5 | CN(CCC(=O)Nc1cncc(-c2cc(-c3cc(Cl)ccc3F)nc3c2OCCN3)c1)C1COC1 [Example 45, N-{5-[6-(5-chloro-2-fluorophenyl)-2H,3H,4H-pyrido[3,2-b][1,4]oxazin-8-yl]pyridin-3-yl}-3-[methyl(oxetan-3-yl)amino]propanamide]
